Experimental data published in paper PMC6120666 (The EMBO Journal, 2018).

What was measured:
Test in all cases: Drug affinity chromatography with c-ponatinib and LC-MS/MS (ponatinib interactome)
Assay type in all cases: binding
[1] = biological target: T1, proteins of U2OS cell lysate (Homo sapiens, UniProt O15372)
T1 construct: Proteins enriched by c-ponatinib from U2OS cell lysate; endogenous in cells; host or cells: U2OS cell lysate
Experimental: (§1) Drug affinity chromatography
(§2) U2OS cells were grown until approximately 80% confluent before being pelleted and washed with PBS. Cell pellets were subsequently lysed in buffer A (50 mM Tris pH 7.5, 0.8% v/v NP-40, 5% v/v glycerol, 1.5 mM MgCl2, 100 mM NaCl, 25 mM NaF, 1 mM Na3VO4, 1 mM PMSF, 1mM DTT, 10 μg/mL TLCK, 1 μg/ml Leupeptin, 1 μg/ml Aprotinin, 1 μg/ml soy bean trypsin) and lysates prepared […]
(§3) concentration was determined and lysates stored at -80 °C.
(§4) Briefly, 100 μl of bead slurry (50% in isopropanol) were used for each pulldown experiment. Beads were washed with DMSO (3 × 500 μl), and resuspended in DMSO (50 μl), to which the amine (0.025 μmol) and triethylamine (0.75 μl) were added. The beads were incubated at room temperature for 16 h, and depletion of free amine from the supernatant was determined by LC-MS analysis. Ethanolamine (2.5 μl) was then added to block any unreacted NHS sites, and the beads incubated for a further 16 h. Derivatized beads were then washed with DMSO (3 × 500 μl), buffer A (3 × 1 ml), and incubated with cell lysates (2 mg of protein per pulldown, at 6 […]
(§5) Beads and treated lysates were incubated for 2 h at 4 °C before washing with buffer A (5 ml), Buffer B (50 mM HEPES pH 7.5, 100 mM NaCl, 500 μM EDTA, 2.5 ml), and eluted with formic acid (100 mM, 250 μl). Samples were neutralized with triethylammoniumbicarbonate (TEAB, 1M, 62.5 μl) and stored at -20 °C until preparation for proteomic analysis.
(§6) Samples were reduced with DTT (10 mM final concentration) for 30 min at room temperature, alkylated with iodoacetamide (55 mM final concentration) for 30 min at room temperature, diluted to 300 μl with TEAB, and incubated with trypsin (6 μl, 0.2 mg/ml) overnight at 37 °C. The digests were desalted using SEPAC lite columns (Waters), eluted with 69 % v/v MeCN, 0.1 % v/v FA in H2O (1 ml) and dried in vacuo. Dried peptides were stored at -20 °C before resuspension in 2 % v/v MeCN, 1 % v/v FA in H2O (20 μl) for LC-MS/MS analysis.
(§7) LC-MS/MS data acquisition
(§8) Mass spectrometry data was acquired at the Discovery Proteomics Facility (University of Oxford).
(§9) Digested samples were analyzed by nano-UPLC–MS/MS using a Dionex Ultimate 3000 nano UPLC with EASY spray column (75 μm × 500 mm, 2 μm particle size, Thermo Fisher Scientific) with a 60 min gradient of 0.1 % (v/v) formic acid in 5 % (v/v) DMSO to 0.1 % (v/v) formic acid with 35 % (v/v) acetonitrile in 5 % (v/v) DMSO at a flow rate of approximately 250 nl min−1 (600 bar per 40 °C column temperature). Mass spectrometry data was acquired either with an Orbitrap Q Exactive (Survey scans acquired at a resolution of 70,000 @ 200m/z and the 15 most abundant precursors were selected for HCD fragmentation), or an Orbitrap Q Exactive High Field (HF) instrument (survey scans were […]

[2] = biological target: T2, proteins of U2OS cell lysate (Homo sapiens, UniProt P04406)
T2 construct: Proteins enriched by c-ponatinib from U2OS cell lysate; endogenous in cells; host or cells: U2OS cell lysate
Experimental: as §1, §2, §3, §4, §5, §6, §7, §8, §9

[3] = biological target: T3, proteins of U2OS cell lysate (Homo sapiens, UniProt O95373)
T3 construct: Proteins enriched by c-ponatinib from U2OS cell lysate; endogenous in cells; host or cells: U2OS cell lysate
Experimental: as §1, §2, §3, §4, §5, §6, §7, §8, §9

[4] = biological target: T4, proteins of U2OS cell lysate (Homo sapiens, UniProt P60900)
T4 construct: Proteins enriched by c-ponatinib from U2OS cell lysate; endogenous in cells; host or cells: U2OS cell lysate
Experimental: as §1, §2, §3, §4, §5, §6, §7, §8, §9

[5] = biological target: T5, proteins of U2OS cell lysate (Homo sapiens, UniProt P60228)
T5 construct: Proteins enriched by c-ponatinib from U2OS cell lysate; endogenous in cells; host or cells: U2OS cell lysate
Experimental: as §1, §2, §3, §4, §5, §6, §7, §8, §9

[6] = system: proteins of U2OS cell lysate
Experimental: as §1, §2, §3, §4, §5, §6, §7, §8, §9

[7] = biological target: T6, proteins of U2OS cell lysate (Homo sapiens, UniProt Q7RTV0)
T6 construct: Proteins enriched by c-ponatinib from U2OS cell lysate; endogenous in cells; host or cells: U2OS cell lysate
Experimental: as §1, §2, §3, §4, §5, §6, §7, §8, §9

[8] = biological target: T7, proteins of U2OS cell lysate (Homo sapiens, UniProt P35268)
T7 construct: Proteins enriched by c-ponatinib from U2OS cell lysate; endogenous in cells; host or cells: U2OS cell lysate
Experimental: as §1, §2, §3, §4, §5, §6, §7, §8, §9

[9] = biological target: T8, proteins of U2OS cell lysate (Homo sapiens, UniProt P49327)
T8 construct: Proteins enriched by c-ponatinib from U2OS cell lysate; endogenous in cells; host or cells: U2OS cell lysate
Experimental: as §1, §2, §3, §4, §5, §6, §7, §8, §9

[10] = biological target: T9, proteins of U2OS cell lysate (Homo sapiens, UniProt Q03252)
T9 construct: Proteins enriched by c-ponatinib from U2OS cell lysate; endogenous in cells; host or cells: U2OS cell lysate
Experimental: as §1, §2, §3, §4, §5, §6, §7, §8, §9

[11] = biological target: T10, proteins of U2OS cell lysate (Homo sapiens, UniProt P04049)
T10 construct: Proteins enriched by c-ponatinib from U2OS cell lysate; endogenous in cells; host or cells: U2OS cell lysate
Experimental: as §1, §2, §3, §4, §5, §6, §7, §8, §9

[12] = biological target: T11, proteins of U2OS cell lysate (Homo sapiens, UniProt Q15428)
T11 construct: Proteins enriched by c-ponatinib from U2OS cell lysate; endogenous in cells; host or cells: U2OS cell lysate
Experimental: as §1, §2, §3, §4, §5, §6, §7, §8, §9

[13] = biological target: T12, proteins of U2OS cell lysate (Homo sapiens, UniProt P50613)
T12 construct: Proteins enriched by c-ponatinib from U2OS cell lysate; endogenous in cells; host or cells: U2OS cell lysate
Experimental: as §1, §2, §3, §4, §5, §6, §7, §8, §9

[14] = biological target: T13, proteins of U2OS cell lysate (Homo sapiens, UniProt Q13435)
T13 construct: Proteins enriched by c-ponatinib from U2OS cell lysate; endogenous in cells; host or cells: U2OS cell lysate
Experimental: as §1, §2, §3, §4, §5, §6, §7, §8, §9

[15] = biological target: T14, proteins of U2OS cell lysate (Homo sapiens, UniProt P17987)
T14 construct: Proteins enriched by c-ponatinib from U2OS cell lysate; endogenous in cells; host or cells: U2OS cell lysate
Experimental: as §1, §2, §3, §4, §5, §6, §7, §8, §9

[16] = biological target: T15, proteins of U2OS cell lysate (Homo sapiens, UniProt P28074)
T15 construct: Proteins enriched by c-ponatinib from U2OS cell lysate; endogenous in cells; host or cells: U2OS cell lysate
Experimental: as §1, §2, §3, §4, §5, §6, §7, §8, §9

[17] = biological target: T16, proteins of U2OS cell lysate (Homo sapiens, UniProt P06733)
T16 construct: Proteins enriched by c-ponatinib from U2OS cell lysate; endogenous in cells; host or cells: U2OS cell lysate
Experimental: as §1, §2, §3, §4, §5, §6, §7, §8, §9

[18] = biological target: T17, proteins of U2OS cell lysate (Homo sapiens, UniProt Q13347)
T17 construct: Proteins enriched by c-ponatinib from U2OS cell lysate; endogenous in cells; host or cells: U2OS cell lysate
Experimental: as §1, §2, §3, §4, §5, §6, §7, §8, §9

T6 sequence (Q7RTV0 whole entry): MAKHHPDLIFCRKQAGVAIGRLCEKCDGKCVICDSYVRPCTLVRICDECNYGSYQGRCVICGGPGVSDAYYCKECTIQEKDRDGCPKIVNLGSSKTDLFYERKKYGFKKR
T8 sequence (P49327 whole entry): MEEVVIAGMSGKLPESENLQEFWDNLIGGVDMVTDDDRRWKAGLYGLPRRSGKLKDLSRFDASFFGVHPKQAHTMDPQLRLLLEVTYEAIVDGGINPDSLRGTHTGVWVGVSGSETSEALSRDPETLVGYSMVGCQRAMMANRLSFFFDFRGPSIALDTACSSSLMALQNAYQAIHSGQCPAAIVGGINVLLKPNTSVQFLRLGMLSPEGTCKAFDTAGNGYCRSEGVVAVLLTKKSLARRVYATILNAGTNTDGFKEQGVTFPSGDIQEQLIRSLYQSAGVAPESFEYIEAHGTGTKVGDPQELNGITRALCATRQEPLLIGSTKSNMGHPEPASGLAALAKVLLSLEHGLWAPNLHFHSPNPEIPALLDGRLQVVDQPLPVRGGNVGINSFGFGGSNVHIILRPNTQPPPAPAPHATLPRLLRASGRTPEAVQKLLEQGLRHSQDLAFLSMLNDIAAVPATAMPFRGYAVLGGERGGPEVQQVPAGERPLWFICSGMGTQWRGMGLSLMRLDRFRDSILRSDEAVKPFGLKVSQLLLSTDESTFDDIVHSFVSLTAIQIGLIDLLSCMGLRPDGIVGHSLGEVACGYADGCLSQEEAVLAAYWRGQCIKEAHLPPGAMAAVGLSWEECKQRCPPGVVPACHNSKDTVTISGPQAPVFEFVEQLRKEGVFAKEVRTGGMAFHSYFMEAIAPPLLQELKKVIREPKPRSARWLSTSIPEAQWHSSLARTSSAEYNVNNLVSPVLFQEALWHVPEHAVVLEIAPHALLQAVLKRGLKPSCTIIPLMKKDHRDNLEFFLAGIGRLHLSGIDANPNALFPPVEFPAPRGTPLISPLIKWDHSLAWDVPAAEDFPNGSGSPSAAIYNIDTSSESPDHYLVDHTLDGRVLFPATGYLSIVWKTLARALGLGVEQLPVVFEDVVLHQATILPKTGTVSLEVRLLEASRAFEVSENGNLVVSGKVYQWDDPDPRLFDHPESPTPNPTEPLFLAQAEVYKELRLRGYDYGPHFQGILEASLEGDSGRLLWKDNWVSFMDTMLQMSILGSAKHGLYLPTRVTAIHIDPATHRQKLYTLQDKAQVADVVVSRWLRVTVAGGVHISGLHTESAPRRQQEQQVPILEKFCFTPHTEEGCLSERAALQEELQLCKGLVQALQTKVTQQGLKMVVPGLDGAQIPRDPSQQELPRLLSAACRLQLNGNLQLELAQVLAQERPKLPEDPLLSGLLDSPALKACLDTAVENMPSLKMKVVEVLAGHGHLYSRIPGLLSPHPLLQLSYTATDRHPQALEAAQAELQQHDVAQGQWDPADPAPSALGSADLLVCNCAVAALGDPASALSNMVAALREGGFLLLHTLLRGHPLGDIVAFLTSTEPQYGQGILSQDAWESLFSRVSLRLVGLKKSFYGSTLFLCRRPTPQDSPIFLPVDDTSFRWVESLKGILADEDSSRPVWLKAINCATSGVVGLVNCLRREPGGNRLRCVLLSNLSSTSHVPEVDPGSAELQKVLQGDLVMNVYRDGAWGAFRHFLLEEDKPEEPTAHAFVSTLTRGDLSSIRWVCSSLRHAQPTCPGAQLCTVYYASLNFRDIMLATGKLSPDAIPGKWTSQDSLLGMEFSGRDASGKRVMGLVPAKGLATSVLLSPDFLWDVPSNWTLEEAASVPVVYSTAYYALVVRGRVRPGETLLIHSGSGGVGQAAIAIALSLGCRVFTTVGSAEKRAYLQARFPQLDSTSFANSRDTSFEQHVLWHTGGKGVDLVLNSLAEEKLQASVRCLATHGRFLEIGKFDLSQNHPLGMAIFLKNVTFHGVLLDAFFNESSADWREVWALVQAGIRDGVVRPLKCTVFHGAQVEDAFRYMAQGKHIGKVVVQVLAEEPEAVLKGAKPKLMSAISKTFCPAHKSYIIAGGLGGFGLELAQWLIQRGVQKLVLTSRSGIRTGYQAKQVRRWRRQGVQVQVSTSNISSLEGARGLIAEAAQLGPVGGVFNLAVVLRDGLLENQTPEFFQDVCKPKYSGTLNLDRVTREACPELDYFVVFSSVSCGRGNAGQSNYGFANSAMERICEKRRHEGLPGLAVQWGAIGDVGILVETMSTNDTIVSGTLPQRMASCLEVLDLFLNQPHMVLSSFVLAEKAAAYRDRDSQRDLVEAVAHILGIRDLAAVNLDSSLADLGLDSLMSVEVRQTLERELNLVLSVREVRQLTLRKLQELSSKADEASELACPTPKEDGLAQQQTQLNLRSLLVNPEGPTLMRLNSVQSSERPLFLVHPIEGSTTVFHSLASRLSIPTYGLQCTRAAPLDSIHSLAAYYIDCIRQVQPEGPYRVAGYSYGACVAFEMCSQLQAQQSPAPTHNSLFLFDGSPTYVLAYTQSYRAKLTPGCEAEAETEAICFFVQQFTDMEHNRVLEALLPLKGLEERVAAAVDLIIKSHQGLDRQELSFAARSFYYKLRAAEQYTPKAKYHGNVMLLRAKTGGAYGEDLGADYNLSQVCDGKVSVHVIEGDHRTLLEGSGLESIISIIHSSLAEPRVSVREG
T9 sequence (Q03252 whole entry): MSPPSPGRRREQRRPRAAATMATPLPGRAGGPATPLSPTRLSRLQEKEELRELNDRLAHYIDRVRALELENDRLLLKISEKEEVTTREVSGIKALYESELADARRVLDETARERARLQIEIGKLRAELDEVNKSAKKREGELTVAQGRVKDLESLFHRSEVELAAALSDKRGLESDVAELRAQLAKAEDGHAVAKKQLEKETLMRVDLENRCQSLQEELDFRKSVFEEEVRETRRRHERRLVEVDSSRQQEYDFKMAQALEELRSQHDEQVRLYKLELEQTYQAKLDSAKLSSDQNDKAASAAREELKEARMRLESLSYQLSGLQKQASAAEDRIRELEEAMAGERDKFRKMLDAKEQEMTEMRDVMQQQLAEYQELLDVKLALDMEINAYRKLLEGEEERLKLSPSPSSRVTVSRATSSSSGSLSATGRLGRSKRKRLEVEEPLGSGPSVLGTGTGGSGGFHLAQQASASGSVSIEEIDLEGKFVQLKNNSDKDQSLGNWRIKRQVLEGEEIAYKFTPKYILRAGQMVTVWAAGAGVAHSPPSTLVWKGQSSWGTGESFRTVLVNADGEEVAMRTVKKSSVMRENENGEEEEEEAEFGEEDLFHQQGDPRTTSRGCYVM
T3 sequence (O95373 whole entry): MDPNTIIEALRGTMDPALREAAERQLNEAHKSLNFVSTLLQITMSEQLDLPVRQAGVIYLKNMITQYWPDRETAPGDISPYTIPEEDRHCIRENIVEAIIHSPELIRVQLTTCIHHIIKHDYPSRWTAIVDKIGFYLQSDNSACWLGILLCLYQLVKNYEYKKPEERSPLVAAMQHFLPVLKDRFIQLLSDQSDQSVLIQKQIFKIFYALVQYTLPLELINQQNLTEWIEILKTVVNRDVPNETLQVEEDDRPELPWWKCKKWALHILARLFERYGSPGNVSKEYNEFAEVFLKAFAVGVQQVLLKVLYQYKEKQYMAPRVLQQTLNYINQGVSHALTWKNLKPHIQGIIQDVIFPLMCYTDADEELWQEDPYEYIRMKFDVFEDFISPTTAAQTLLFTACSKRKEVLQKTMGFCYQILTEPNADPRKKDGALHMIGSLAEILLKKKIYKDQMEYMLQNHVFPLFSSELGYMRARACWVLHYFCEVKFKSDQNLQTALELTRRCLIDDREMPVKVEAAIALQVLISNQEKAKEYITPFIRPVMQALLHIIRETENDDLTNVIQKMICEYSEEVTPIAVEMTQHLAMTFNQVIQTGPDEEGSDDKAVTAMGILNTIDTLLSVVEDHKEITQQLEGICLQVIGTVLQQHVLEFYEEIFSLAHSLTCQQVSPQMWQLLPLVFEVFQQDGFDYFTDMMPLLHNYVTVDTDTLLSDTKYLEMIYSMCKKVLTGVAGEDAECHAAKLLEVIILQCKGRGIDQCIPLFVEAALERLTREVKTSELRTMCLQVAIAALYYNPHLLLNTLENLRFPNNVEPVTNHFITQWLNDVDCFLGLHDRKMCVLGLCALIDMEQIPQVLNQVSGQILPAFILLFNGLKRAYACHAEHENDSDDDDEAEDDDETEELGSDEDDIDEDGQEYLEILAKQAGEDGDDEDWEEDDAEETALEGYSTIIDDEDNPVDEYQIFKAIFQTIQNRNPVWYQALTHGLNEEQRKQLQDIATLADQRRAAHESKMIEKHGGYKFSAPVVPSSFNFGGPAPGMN
T14 sequence (P17987 whole entry): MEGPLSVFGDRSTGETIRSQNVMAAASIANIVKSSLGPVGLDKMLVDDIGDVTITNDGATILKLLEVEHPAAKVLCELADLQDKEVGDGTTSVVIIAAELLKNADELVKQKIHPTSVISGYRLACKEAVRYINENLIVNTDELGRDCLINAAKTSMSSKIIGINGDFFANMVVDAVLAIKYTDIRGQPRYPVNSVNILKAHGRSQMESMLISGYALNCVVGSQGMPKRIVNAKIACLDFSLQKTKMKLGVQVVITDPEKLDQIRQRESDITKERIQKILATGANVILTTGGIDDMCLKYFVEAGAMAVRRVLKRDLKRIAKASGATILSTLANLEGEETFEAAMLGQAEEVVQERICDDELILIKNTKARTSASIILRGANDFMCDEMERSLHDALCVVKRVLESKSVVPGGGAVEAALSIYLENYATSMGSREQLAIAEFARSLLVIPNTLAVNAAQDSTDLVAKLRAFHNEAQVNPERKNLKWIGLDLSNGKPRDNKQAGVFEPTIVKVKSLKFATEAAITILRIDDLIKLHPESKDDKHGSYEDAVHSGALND
T15 sequence (P28074 60-263): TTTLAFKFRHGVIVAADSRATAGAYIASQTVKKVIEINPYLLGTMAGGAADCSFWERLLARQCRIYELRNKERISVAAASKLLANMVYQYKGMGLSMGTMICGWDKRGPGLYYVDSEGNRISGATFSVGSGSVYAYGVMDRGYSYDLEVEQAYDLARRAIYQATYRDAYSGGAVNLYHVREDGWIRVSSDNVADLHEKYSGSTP

## Cc1ccc(C(=O)Nc2ccc(CN3CCN(C)CC3)c(C(F)(F)F)c2)cc1C#Cc1cnc2cccnn12 [PON]
[1]; EIF3H;EIF3S3, Eukaryotic translation initiation factor 3 subunit H
  Average LFQ PON_WT: 23.1902
[2]; GAPDH, Glyceraldehyde-3-phosphate dehydrogenase
  Average LFQ PON_WT: 22.9925
[3]; IPO7, Importin-7
  Average LFQ PON_WT: 23.1828
[4]; PSMA6, Proteasome subunit alpha type-6
  Average LFQ PON_WT: 22.244
[5]; EIF3E, Eukaryotic translation initiation factor 3 subunit E
  Average LFQ PON_WT: 22.7111
[6]; ACTG1;ACTB;ACTG2;ACTA1;ACTC1;ACTA2, Actin, cytoplasmic 2
  Average LFQ PON_WT: 29.1554
[6]; HIST1H1C;HIST1H1E;HIST1H1D;HIST1H1A, Histone H1.2
  Average LFQ PON_WT: 24.5034
[7]; PHF5A, PHD finger-like domain-containing protein 5A
  Average LFQ PON_WT: 21.937
[8]; RPL22, 60S ribosomal protein L22
  Average LFQ PON_WT: 21.5804
[9]; FASN, Fatty acid synthase
  Average LFQ PON_WT: 22.4378
[10]; LMNB2, Lamin-B2
  Average LFQ PON_WT: 22.9109
[11]; RAF1, RAF proto-oncogene serine/threonine-protein kinase
  Average LFQ PON_WT: 21.5684
[12]; SF3A2, Splicing factor 3A subunit 2
  Average LFQ PON_WT: 22.8464
[13]; CDK7, Cyclin-dependent kinase 7
  Average LFQ PON_WT: 22.0619
[14]; SF3B2, Splicing factor 3B subunit 2
  Average LFQ PON_WT: 22.8369
[15]; TCP1, T-complex protein 1 subunit alpha
  Average LFQ PON_WT: 22.697
[16]; PSMB5, Proteasome subunit beta type-5
  Average LFQ PON_WT: 21.73
[17]; ENO1, Alpha-enolase
  Average LFQ PON_WT: 21.9992
[18]; EIF3I, Eukaryotic translation initiation factor 3 subunit I
  Average LFQ PON_WT: 22.8398

## Cc1ccc(C(=O)Nc2ccc(CN3CCN(CCCN)CC3)c(C(F)(F)F)c2)cc1C#Cc1cnc2cccnn12 [c-ponatinib, reference compound]
[1]; captured protein EIF3H;EIF3S3, Rank 114
  Average LFQ intensity: 23.1902
[2]; captured protein GAPDH, Rank 124
  Average LFQ intensity: 22.9925
[3]; captured protein IPO7, Rank 116
  Average LFQ intensity: 23.1828
[4]; captured protein PSMA6, Rank 175
  Average LFQ intensity: 22.244
[5]; captured protein EIF3E, Rank 148
  Average LFQ intensity: 22.7111
[6]; captured protein ACTR1A;ACTR1B, Rank 131
  Average LFQ intensity: 22.8935
[6]; captured protein ATP1A1;ATP1A3;ATP1A2, Rank 167
  Average LFQ intensity: 22.3247
[6]; captured protein CDK1;CDK2, Rank 143
  Average LFQ intensity: 22.743
[6]; captured protein DYNLRB1;DYNLRB2, Rank 170
  Average LFQ intensity: 22.2764
[6]; captured protein GNB2;GNB4;GNB1, Rank 150
  Average LFQ intensity: 22.669
[6]; captured protein H3F3B;H3F3A;HIST2H3A;HIST3H3;HIST1H3A;H3F3C;HIST2H3PS2, Rank 159
  Average LFQ intensity: 22.4876
[6]; captured protein HNRNPA1;HNRNPA1L2, Rank 216
  Average LFQ intensity: 21.6974
[6]; captured protein LUC7L2;LUC7L, Rank 142
  Average LFQ intensity: 22.7445
[6]; captured protein MYL12A;MYL12B, Rank 201
  Average LFQ intensity: 21.8427
[6]; captured protein OGDH;OGDHL, Rank 189
  Average LFQ intensity: 22.0277
[6]; captured protein PSMA7;PSMA8, Rank 184
  Average LFQ intensity: 22.0977
[6]; captured protein RAB11A;RAB11B, Rank 162
  Average LFQ intensity: 22.3634
[6]; captured protein RPS10;RPS10P5, Rank 217
  Average LFQ intensity: 21.6692
[6]; captured protein RPS26;RPS26P11, Rank 219
  Average LFQ intensity: 21.6239
[6]; captured protein RPS27L;RPS27, Rank 208
  Average LFQ intensity: 21.7512
[6]; captured protein SNRPN;SNRPB, Rank 206
  Average LFQ intensity: 21.7664
[7]; captured protein PHF5A, Rank 194
  Average LFQ intensity: 21.937
[8]; captured protein RPL22, Rank 221
  Average LFQ intensity: 21.5804
[9]; captured protein FASN, Rank 161
  Average LFQ intensity: 22.4378
[10]; captured protein LMNB2, Rank 128
  Average LFQ intensity: 22.9109
[11]; captured protein RAF1, Rank 223
  Average LFQ intensity: 21.5685
[12]; captured protein SF3A2, Rank 134
  Average LFQ intensity: 22.8464
[13]; captured protein CDK7, Rank 187
  Average LFQ intensity: 22.0619
[14]; captured protein SF3B2, Rank 136
  Average LFQ intensity: 22.8369
[15]; captured protein TCP1, Rank 149
  Average LFQ intensity: 22.697
[16]; captured protein PSMB5, Rank 211
  Average LFQ intensity: 21.7301
[17]; captured protein ENO1, Rank 190
  Average LFQ intensity: 21.9992
[18]; captured protein EIF3I, Rank 135
  Average LFQ intensity: 22.8398
